Legend:
Format in all cases: in vivo
[1] = system: Tobacco Budworm (Heliothis virescens); assay: Tobacco budworm insect diet test (B.4); conditions: 120 h, egg and larval mortality, 5 days, in comparison with untreated controls
Protocol: For evaluating control of tobacco budworm (Heliothis virescens) the test unit consisted of 96-well-microtiter plates containing an insect diet and 15-25 H. virescens eggs.
The compounds were formulated using a solution containing 75% v/v water and 25% v/v DMSO. Different concentrations of formulated compounds were sprayed onto the insect diet at 10 μl, using a custom built micro atomizer, at two replications.
(§1) After application, microtiter plates were incubated at about 28±1° C. and about 80±5% relative humidity for 5 days. Egg and larval mortality was then visually assessed.

[2] = system: Boll Weevil (Anthonomus grandis); assay: Boll weevil insect diet test (B.5); conditions: 120 h, egg and larval mortality, 5 days, in comparison with untreated controls
Protocol: For evaluating control of boll weevil (Anthonomus grandis) the test unit consisted of 96-well-microtiter plates containing an insect diet and 5-10 A. grandis eggs.
(§2) The compounds were formulated using a solution containing 75% v/v water and 25% v/v DMSO. Different concentrations of formulated compounds were sprayed onto the insect diet at 5 μl, using a custom built micro atomizer, at two replications.
After application, microtiter plates were incubated at about 25±1° C. and about 75±5% relative humidity for 5 days. Egg and larval mortality was then visually assessed.

[3] = system: Green Peach Aphid (Myzus persicae); assay: Green peach aphid artificial diet test, systemic (B.2); conditions: 72 h, adult aphids on treated artificial diet, 3 days, in comparison with untreated controls
Description: For evaluating control of green peach aphid (Myzus persicae) through systemic means the test unit consisted of 96-well-microtiter plates containing liquid artificial diet under an artificial membrane.
The compounds were formulated using a solution containing 75% v/v water and 25% v/v DMSO. Different concentrations of formulated compounds were pipetted into the aphid diet, using a custom built pipetter, at two replications.
After application, 5-8 adult aphids were placed on the artificial membrane inside the microtiter plate wells. The aphids were then allowed to suck on the treated aphid diet and incubated at about 23±1° C. and about 50±5% relative humidity for 3 days. Aphid mortality and fecundity was then visually assessed.

[4] = system: Diamond Back Moth (Plutella xylostella); assay: Diamond back moth leaf-dip test (B.1); conditions: 3rd instar larvae on dipped cabbage leaves, 72 hours after treatment, in comparison with untreated controls
Protocol: The active compound was dissolved at the desired concentration in a mixture of 1:1 (vol:vol) distilled water:aceteone. Surfactant (Kinetic HV) was added at a rate of 0.01% (vol/vol). The test solution was prepared at the day of use.
Leaves of cabbage were dipped in test solution and air-dried. Treated leaves were placed in petri dishes lined with moist filter paper and inoculated with ten 3rd instar larvae. Mortality was recorded 72 hours after treatment. Feeding damages were also recorded using a scale of 0-100%.

[5] = system: Orchid Thrips (Dichromothrips corbetti); assay: Orchid thrips floral-immersion test (B.7); conditions: adult thrips on dipped orchid petals, 72 hours after treatment, in comparison with untreated controls
Protocol: Dichromothrips corbetti adults used for bioassay were obtained from a colony maintained continuously under laboratory conditions. For testing purposes, the test compound is diluted in a 1:1 mixture of acetone:water (vol:vol), plus Kinetic HV at a rate of 0.01% v/v.
Thrips potency of each compound was evaluated by using a floral-immersion technique. All petals of individual, intact orchid flowers were dipped into treatment solution and allowed to dry in Petri dishes. Treated petals were placed into individual re-sealable plastic along with about 20 adult thrips. All test arenas were held under continuous light and a temperature of about 28° C. for duration of the assay. After 3 days, the numbers of live thrips were counted on each petal. The percent mortality was recorded 72 hours after treatment.

[6] = system: Mediterranean Fruitfly (Ceratitis capitata); assay: Mediterranean fruitfly insect diet test (B.6); conditions: 120 h, egg and larval mortality, 5 days, in comparison with untreated controls
Protocol: as §2, with “For evaluating control of Mediterranean fruitfly (Ceratitis capitata) the test unit consisted of microtiter plates containing an insect diet and 50-80 C. capitata eggs. The” for “The”
as §1

[7] = system: Red Spider Mite (Tetranychus kanzawai); assay: Red spider mite cowpea spray test (B.9); conditions: mites on sprayed cowpea beans, 72 hours after treatment, in comparison with untreated controls
Protocol: The active compound was dissolved at the desired concentration in a mixture of 1:1 (vol:vol) distilled water:acetone. Add surfactant (Kinetic HV) was added at a rate of 0.01% (vol/vol). The test solution was prepared at the day of use.
Potted cowpea beans of 4-5 days of age were cleaned with tap water and sprayed with 1-2 ml of the test solution using air driven hand atomizer. The treated plants were allowed to air dry and afterwards inoculated with 30 or more mites by clipping a cassava leaf section from rearing population. Treated plants were placed inside a holding room at about 25-27° C. and about 50-60% relative humidity. Percent mortality was assessed 72 hours after treatment.

[8] = system: Vetch Aphid (Megoura viciae); assay: Vetch aphid broad bean leaf disk test (B.3); conditions: foliar, 120 h, adult aphids on sprayed leaf disks, 5 days, in comparison with untreated controls
Protocol: For evaluating control of vetch aphid (Megoura viciae) through contact or systemic means the test unit consisted of 24-well-microtiter plates containing broad bean leaf disks.
The compounds were formulated using a solution containing 75% v/v water and 25% v/v DMSO. Different concentrations of formulated compounds were sprayed onto the leaf disks at 2.5 μl, using a custom built micro atomizer, at two replications.
After application, the leaf disks were air-dried and 5-8 adult aphids placed on the leaf disks inside the microtiter plate wells. The aphids were then allowed to suck on the treated leaf disks and incubated at about 23±1° C. and about 50±5% relative humidity for 5 days. Aphid mortality and fecundity was then visually assessed.

[9] = system: Rice green leafhopper (Nephotettix virescens); assay: Rice green leafhopper rice seedling spray test (B.8); conditions: adults on sprayed rice seedlings, after 72 hours, in comparison with untreated controls
Protocol: Rice seedlings were cleaned and washed 24 hours before spraying. The active compounds were formulated in 1:1 acetone:water (vol:vol), and 0.01% vol/vol surfactant (Kinetic HV) was added. Potted rice seedlings were sprayed with 5-6 ml test solution, air dried, covered with Mylar cages cages and inoculated with 10 adults. Treated rice plants were kept at about 28-29° C. and relative humidity of about 50-60%. Percent mortality was recorded after 72 hours.

O=C(O)c1ccc(C2=NSC(c3cc(Cl)c(F)c(Cl)c3)(C(F)(F)F)C2)c2c1CCC2 (centres unmarked) [Compound 1-1, 7-[5-(3,5-Dichloro-4-fluoro-phenyl)-5-(trifluoromethyl)-4H-isothiazol-3-yl]indane-4-carboxylic acid]
≥ 75%: mortality at 2500 ppm [1] | mortality at 2500 ppm [2] | mortality at 2500 ppm [3]

O=C(NCC(F)(F)F)c1ccc(C2=NSC(c3cc(Cl)c(F)c(Cl)c3)(C(F)(F)F)C2)c2c1CCC2 (centres unmarked) [Compound 1-7, 7-[5-(3,5-Dichloro-4-fluoro-phenyl)-5-(trifluoromethyl)-4H-isothiazol-3-yl]-N-(2,2,2-trifluoroethyl)indane-4-carboxamide]
≥ 75%: mortality at 500 ppm [4] | mortality at 2500 ppm [1] | mortality at 500 ppm [5] | mortality at 2500 ppm [6] | mortality at 500 ppm [7] | mortality at 2500 ppm [2] | mortality at 2500 ppm [8] | mortality at 500 ppm [9] | mortality at 2500 ppm [3]

COC(=O)c1ccc(C2=NSC(c3cc(Cl)c(F)c(Cl)c3)(C(F)(F)F)C2)c2c1CCCC2 (centres unmarked) [Compound 2-1, Methyl 8-[5-(3,5-dichloro-4-fluoro-phenyl)-5-(trifluoromethyl)-4H-isothiazol-3-yl]tetralin-5-carboxylate]
≥ 75%: mortality at 2500 ppm [1] | mortality at 2500 ppm [6] | mortality at 2500 ppm [2]

O=C(O)c1ccc(C2=NSC(c3cc(Cl)c(F)c(Cl)c3)(C(F)(F)F)C2)c2c1CCCC2 (centres unmarked) [Compound 2-2, 8-[5-(3,5-Dichloro-4-fluoro-phenyl)-5-(trifluoromethyl)-4H-isothiazol-3-yl]tetralin-5-carboxylic acid]
≥ 75%: mortality at 2500 ppm [1] | mortality at 2500 ppm [6] | mortality at 2500 ppm [2]

O=C(NCc1ncccn1)c1ccc(C2=NSC(c3cc(Cl)c(F)c(Cl)c3)(C(F)(F)F)C2)c2c1CCCC2 (centres unmarked) [Compound 2-6, 8-[5-(3,5-Dichloro-4-fluoro-phenyl)-5-(trifluoromethyl)-4H-isothiazol-3-yl]-N-(pyrimidin-2-ylmethyl)tetralin-5-carboxamide]
≥ 75%: mortality at 2500 ppm [1] | mortality at 2500 ppm [6] | mortality at 2500 ppm [2] | mortality at 2500 ppm [8] | mortality at 2500 ppm [3]
